In PubChem BioAssay (NCI):
Several values for one entry are separate records, joined by “and”; a condition that tells them apart may be missing. Identical values can stand only once.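 In this assay, cells in 96-well plates receive the compound at five concentrations for 48 hours. Endpoints are linearly interpolated between the surrounding concentrations. At the GI50, growth is halved. TGI denotes the concentration required for complete inhibition of growth.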

Assays:
Assay in all cases: DTP human tumour cell line panel, 48 h
[1] = system: OVCAR-4 ovarian
[2] = system: MDA-MB-435
[3] = system: NCI/ADR-RES ovarian
[4] = system: RPMI-8226 leukemia
[5] = system: MDA-MB-231 breast
[6] = system: M14 melanoma
[7] = system: A498 renal
[8] = system: BT-549 breast
[9] = system: SW-620 colon
[10] = system: SNB-75 CNS

Row | Structure (SMILES) | GI50 [1] | TGI [1] | GI50 [2] | TGI [2] | GI50 [3] | TGI [3] | GI50 [4] | TGI [4] | GI50 [5] | TGI [5] | GI50 [6] | TGI [6] | GI50 [7] | TGI [7] | GI50 [8] | TGI [8] | GI50 [9] | TGI [9] | GI50 [10] | TGI [10]
1 | C/C(=N/O)c1ccc2c(c1)/C(=N/O)c1ccccc1-2 | 15.1 µM | 45.4 µM | 18.7 µM | 39.4 µM | 21 µM | 48.6 µM | 22.5 µM | 48.8 µM | 23 µM | 56.5 µM | 21.9 µM | 40.6 µM | 34.9 µM | > 100 µM | 21.4 µM | 50.4 µM | 19.3 µM | 44.2 µM | 17.7 µM | 44.2 µM
2 | COC(=O)C1C(=O)O[C@@H](c2ccc(OC)c(OC)c2OC)C1C(=O)OC (mixture of isomers) | – | > 100 µM | – | – | – | – | – | > 100 µM | – | – | – | > 100 µM | – | > 100 µM | – | – | – | > 100 µM | – | > 100 µM
3 | CCOc1ccc2c(c1)CN(Cc1ccc(Cl)cc1)CO2 | 19.8 µM | 50.3 µM | 15.2 µM | 29.5 µM | 19.4 µM | 48.9 µM | 19.9 µM | 46.4 µM | 12.9 µM | 34.6 µM | – | – | 2.09 µM | 19.2 µM | 17.6 µM | 36.8 µM | 16.4 µM | 32.1 µM | 15 µM | 45.8 µM
4 | CCCCCCCCCCCCCCCCCCOc1ccccc1CC(=O)OCC[N+](CC)(CC)CC | 1.75 µM | 7.42 µM | 1.55 µM | 6.2 µM | 7.58 µM | 17.5 µM | – | – | 1.05 µM | 2.7 µM | 1.53 µM | 5.4 µM | 2.13 µM | 8.49 µM | 1.95 µM | 9.22 µM | 1.82 µM | 7.33 µM | 0.968 µM | 4.23 µM
5 | COc1ccc(C(=O)O[C@H]2[C@H](O[C@H]3[C@@H](O)COC(O[C@H]4C[C@H]5[C@@H]6CC=C7C[C@@H](O)CC[C@]7(C)[C@H]6CC[C@]5(C)[C@H]4[C@H](C)C(=O)CCC(C)C)[C@@H]3OC(C)=O)OC[C@@H](O)[C@@H]2O)c(C)c1 (stereo partly specified) | 0.717 µM | > 100 µM | < 0.01 µM | 0.0774 µM | 8.48 µM | 86.1 µM | – | – | 0.146 µM | 18.1 µM | < 0.01 µM | 0.0102 µM | < 0.01 µM | < 0.01 µM | < 0.01 µM | 10.7 µM | < 0.01 µM | 0.187 µM | < 0.01 µM | 13.2 µM
6 | CCCCCCCCCCSC(=O)NC | – | > 100 µM | – | – | – | – | – | 48.8 µM | – | – | – | 50 µM | – | > 100 µM | – | – | – | > 100 µM | – | > 100 µM
7 | COc1ccc(-c2ccccc2)c2[nH]c3c(c12)CCNC3=O | – | > 100 µM | – | – | – | – | – | > 100 µM | – | – | – | > 100 µM | – | > 100 µM | – | – | – | > 100 µM | – | > 100 µM
8 | N#Cc1ccccc1C#C/C=C\C#CC#C/C=C\C#Cc1ccccc1C#N | 19.1 µM | > 100 µM | 8.49 µM | 26.4 µM | 18.5 µM | 68.2 µM | 4.11 µM | > 100 µM | 8.76 µM | 35.4 µM | 11.3 µM | 35.5 µM | – | – | 20.9 µM | > 100 µM | 9.1 µM | > 100 µM | – | –
9 | CC(=O)[CH-]C(=O)c1ccccc1.CC(=O)[CH-]C(=O)c1ccccc1.CC(C)CCC[C@H](C)C1CCC2[C@@H]3CC=C4C[C@@H]([O-])CC[C@]4(C)C3CC[C@@]21C.CC(C)CCC[C@H](C)C1CCC2[C@@H]3CC=C4C[C@@H]([O-])CC[C@]4(C)C3CC[C@@]21C.Cl.[Ti+4] (stereo partly specified) | > 25 µM | > 25 µM | – | – | – | – | > 25 µM | > 25 µM | – | – | > 25 µM | > 25 µM | > 25 µM | > 25 µM | – | – | > 25 µM | > 25 µM | 22.1 µM | > 25 µM
10 | CN(NC1OC(CO)C(O)C(O)C1O)c1ccccc1 (stereo unspecified) | – | > 100 µM | – | – | – | – | – | > 100 µM | – | – | – | > 100 µM | – | – | – | – | – | > 100 µM | – | –
11 | CC(=O)OC(C)(C)/C=C/C(=O)[C@](C)(O)[C@H]1[C@H](O)C[C@@]2(C)[C@@H]3CC=C4[C@@H](C=C(O)C(=O)C4(C)C)[C@]3(C)C(=O)C[C@]12C | – | – | 0.0404 µM | 0.194 µM | – | 5.45 µM and 6.12 µM and 5.39 µM | – | 771 nM [middle of 4 runs] | – | 3.39 µM | 0.0193 µM | 0.722 µM and 1.01 µM | – | – | – | 0.0846 µM | – | 7.04 µM and 1.26 µM and 3.48 µM | – | 42.7 nM [middle of 4 runs]
12 | O=C(CO[N+](=O)[O-])OC/C=C/c1ccccc1 | – | – | – | – | – | – | – | > 100 µM | – | – | – | > 100 µM | – | – | – | – | – | > 100 µM | – | > 100 µM
13 | CN(C)CCn1cnc2ncccc2c1=O | – | > 100 µM | – | – | – | – | – | – | – | – | – | > 100 µM | – | – | – | – | – | > 100 µM | – | > 100 µM
14 | CC1CCC(=O)C(C(O)CC2CC(=O)N(c3ccccc3)C(=O)C2)C1 (stereo unspecified) | – | > 100 µM | – | – | – | – | – | > 100 µM | – | – | – | > 100 µM | – | > 100 µM | – | – | – | > 100 µM | – | > 100 µM
15 | O=C(CCl)Nc1cc(Cl)c(Cl)cc1Cl | – | 4.06 µM | – | 2.77 µM | – | 5.31 µM | – | > 10 µM | – | 2.9 µM | – | 2.96 µM | – | > 10 µM | – | 3.53 µM | – | 5.72 µM | – | –
16 | COC1OC(CBr)C(OC(=O)c2ccccc2)C(OS(=O)(=O)c2ccc(C)cc2)C1Br (stereo unspecified) | – | > 100 µM | – | – | – | – | – | > 100 µM | – | – | – | > 100 µM | – | > 100 µM | – | – | – | > 100 µM | – | –
17 | Cc1ccc(Cl)cc1NC(=O)c1cc2ccccc2cc1O | 0.409 µM | > 100 µM | – | – | 0.266 µM | 1.27 µM | 0.106 µM | 0.354 µM | 0.377 µM | 2.06 µM | 0.325 µM | 1.21 µM | 0.369 µM | 1.04 µM | 0.294 µM | 1.28 µM | 0.414 µM | > 100 µM | 0.52 µM | 15.3 µM
18 | COc1cccc2nc3ccccc3nc12 | – | – | – | > 100 µM | – | > 100 µM | – | 69.1 µM | – | > 100 µM | – | > 100 µM | – | > 100 µM | – | – | – | > 100 µM | – | > 100 µM
19 | CC(=O)Nc1ccc(/C=C2\N=C(c3ccccc3)OC2=O)cc1 | – | > 100 µM | – | – | – | – | – | > 100 µM | – | – | – | > 100 µM | – | – | – | – | – | > 100 µM | – | > 100 µM
20 | CN(C)C(=O)NC(=S)N(C)C | – | > 100 µM | – | – | – | – | – | > 100 µM | – | – | – | > 100 µM | – | > 100 µM | – | – | – | > 100 µM | – | > 100 µM
21 | C[C@H](CS)C(=O)N1c2ccccc2C[C@H]1C(=O)O | – | > 100 µM | – | – | – | > 100 µM | – | – | – | > 100 µM | – | – | – | > 100 µM | – | > 100 µM | – | > 100 µM | – | > 100 µM
